Test results as given in article PMC6764326, “The Trials and Tribulations of Structure Assisted Design of KCa Channel Activators” (Frontiers in Pharmacology, 2019).

Experiments:
[1] = biological target: T1, KCa2.2 (Homo sapiens, UniProt P0DP23+Q9H2S1); assay: QPatch automated whole-cell patch-clamp screen, 10 µM activator normalized to 10 µM SKA-31; assay type: cell-based; conditions: 250 nM free internal Ca2+, HEK cells stably expressing channel
T1 construct: expressed in transfected cells
Protocol: (§1) All experiments were performed in either the inside-out or the whole-cell configuration of the patch-clamp technique on either transiently transfected CHO cells or Human Embryonic Kidney (HEK) cell lines stably expressing hKCa3.1 or hKCa2.2 ([Sankaranarayanan et al., 2009]). All cells were cultured in Dulbecco’s modified Eagle’s medium supplemented with 10% fetal calf serum. Wild-type (WT) and mutant hKCa3.1 channel constructs were transfected using FuGENE 6 transfection reagent (Promega, Madison, WI) in OptiMEM reduced-serum medium (Life Technologies, Benicia, CA) for manual patch-clamp experiments or via electroporation (Nucleofector 2b and Lonza Amaxa Cell Line Nucleofector Kit T) according to the manufacturer’s instructions for automated electrophysiology.
(§2) The procedure for performing automated whole-cell KCa channel recordings on a QPatch-16 automated electrophysiology platform (Sophion Biosciences) was previously described in detail by our laboratory ([Jenkins et al., 2013]). For the current study we used the solutions described above with disposable 16-channel planar patch chip plates (QPlates; patch hole diameter […], resistance 2.00–0.02MΩ, Sophion Biosciences, Woburn, MA). Cell positioning and sealing parameters were set as follows: positioning pressure -70 mbar, resistance increase for success 750%, minimum seal resistance 0.1 GΩ, holding potential -0 mV, holding pressure -20 mbar. To avoid rejection of cells with large KCa3.1 currents, the minimum seal resistance for whole-cell requirement was lowered to 0.001 GΩ. Access was obtained with the following sequence: 1) suction pulses in 29 mbar increments from -250 mbar to -453 mbar; 2) a suction ramp of an amplitude of -450 mbar; 3) -400 mV voltage zaps of 1 ms duration. Following establishment of the whole-cell configuration, cells were held at -80 mV and KCa currents elicited by a voltage protocol that held at -80 mV for 20 ms, stepped to -120 mV for 20 ms, ramped from -120 to + 40 mV in 200 ms, and then stepped back to -120 mV for 20 ms. This pulse protocol was applied every 10 s. KCa activator dilutions were prepared freshly (within 5 min of the initiation of the QPatch) with Ringer’s solution from 10 mM stock solutions in dry DMSO. Final DMSO concentrations never exceeded 1%. Glass vial inserts (to avoid adsorption) were filled with 400 µL of compound solution and placed into the insert base plate for use in the QPatch assay. Exemplary QPatch raw current traces and plots of slope conductance versus time are shown in Supplementary Figure 3 . For each compound we typically used 12 consecutive liquid periods Break-in, 3 saline additions to stabilize the current, 2 additions of test compound at 10 µM, 2 saline washes, 2 additions of SKA-31 at 10 µM, followed by 2 more saline washes. In each liquid period 10 pulse protocols were run.
(§3) The newly synthesized compounds were tested by automated whole-cell patch-clamp for their ability to activate KCa2.2 and KCa3.1 channels stably expressed in HEK cells. […] A promising compound would ideally do both. […] We started by comparing the effect of the SKA-74 derivatives to SKA-31 ( Figure 4A ).
(§4) Figure 4 Whole-cell KCa3.1 and KCa2.2 responses elicited by 10 µM of activator and normalized to 10 µM of the mixed activator SKA-31. Experiments were performed by automated electrophysiology with 250 nM of free internal Ca^2+. In each experiment the new activator was tested first, washed out with 2 saline additions, and then SKA-31 was applied as positive control for normalization of the response. (A) Screening of SKA-74 derivatives. (B) Screening of SKA-75 and SKA-76 derivatives. The bar graphs show means ± SD of the slope conductance measured between −85 and −65 mV (n = 2–7 cells). Chemical structures are shown below the bar graphs.
(§5) Figure 5 Whole-cell KCa3.1 and KCa2.2 responses elicited by 10 µM of activator and normalized to 10 µM of the mixed activator SKA-31. […]

[2] = biological target: T2, KCa3.1 (Homo sapiens, UniProt O15554+P0DP23); assay: as above; assay type: cell-based; conditions: for Whole-cell KCa3.1 response elicited by 10 µM of activator normalized to 10 µM SKA-31 (described in words): 250 nM free internal Ca2+, HEK cells stably expressing channel; for Selectivity between KCa3.1 and KCa2.2 in the 10 µM screen: KCa3.1 versus KCa2.2, 250 nM free Ca2+
T2 construct: expressed in transfected cells
Protocol: as §1, §2, §3, §4, §5

Whole-cell KCa2.2 response elicited by 10 µM of activator normalized to 10 µM SKA-31 (described in words) [1]	Whole-cell KCa3.1 response elicited by 10 µM of activator normalized to 10 µM SKA-31 (described in words) [2]	Selectivity between KCa3.1 and KCa2.2 in the 10 µM screen [2]	melting point [°C]	Compound
decreased activity		preserved selectivity for KCa3.1		Cc1nc2c(cc(Cl)c3ccccc32)s1 [SKA-130, 5-Chloro-2-methylnaphtho[1,2-d]thiazole]
decreased activity		preserved selectivity for KCa3.1		Cc1nc2c(cc(Br)c3ccccc32)s1 [SKA-132, 5-Bromo-2-methylnaphtho[1,2-d]thiazole]
decreased activity		preserved selectivity for KCa3.1	101 to 102	Cc1nc2c(cc(Br)c3ccccc32)o1 [SKA-133, 5-Bromo-2-methylnaphtho[1,2-d]oxazole]
inactive	inactive		145 to 146	Cc1nc2c(cc(C#N)c3ccccc32)o1 [SKA-135, 2-Methylnaphtho[1,2-d]oxazole-5-carbonitrile]
		preserved the selectivity for KCa3.1		Cc1nc2c(ccc3c(N)cccc32)s1 [SKA-172, 2-Methylnaphtho[1,2-d]thiazol-6-amine]
			172 to 173	CNc1nc2c(cc(C)c3ccccc32)s1 [SKA-204, N,5-Dimethylnaphtho[1,2-d]thiazol-2-amine]
	roughly as potent	as KCa3.1 selective as SKA-111	144 to 145	CCc1cc2sc(N)nc2c2ccccc12 [SKA-306, 5-Ethylnaphtho[1,2-d]thiazol-2-amine]
	roughly as potent	as KCa3.1 selective as SKA-111	147 to 150	CCCc1cc2sc(N)nc2c2ccccc12 [SKA-307, 5-Propylnaphtho[1,2-d]thiazol-2-amine]
	roughly as potent	as KCa3.1 selective as SKA-111	179 to 181	CC(C)c1cc2sc(N)nc2c2ccccc12 [SKA-308, 5-Isopropylnaphtho[1,2-d]thiazol-2-amine]
	roughly as potent	as KCa3.1 selective as SKA-111	171 to 174	CN(C)c1cc2sc(N)nc2c2ccccc12 [SKA-331, N^5,N^5-Dimethylnaphtho[1,2-d]thiazole-2,5-diamine]
			226 to 227	Nc1nc2c(cc(-n3cccn3)c3ccccc32)s1 [SKA-335, 5-(1H-Pyrazol-1-yl)naphtho[1,2-d]thiazol-2-amine]
			208	Nc1nc2c(cc(-n3ccnn3)c3ccccc32)s1 [SKA-339, 5-(1H-1,2,3-Triazol-1-yl)naphtho[1,2-d]thiazol-2-amine]
			189 to 190	Cc1ccn(-c2cc3sc(N)nc3c3ccccc23)n1 [SKA-340, 5-(3-Methyl-1H-pyrazol-1-yl)naphtho[1,2-d]thiazol-2-amine]
			269 to 271	Cc1cn(-c2cc3sc(N)nc3c3ccccc23)cn1 [SKA-343, 5-(4-Methyl-1H-imidazol-1-yl)naphtho[1,2-d]thiazol-2-amine]
			264 to 265	Cc1nccn1-c1cc2sc(N)nc2c2ccccc12 [SKA-344, 5-(2-Methyl-1H-imidazol-1-yl)naphtho[1,2-d]thiazol-2-amine]
			249	Cc1cnn(-c2cc3sc(N)nc3c3ccccc23)c1 [SKA-345, 5-(4-Methyl-1H-pyrazol-1-yl)naphtho[1,2-d]thiazol-2-amine]
			273	Nc1nc2c(cc(-n3cncn3)c3ccccc32)s1 [SKA-347, 5-(1H-1,2,4-Triazol-1-yl)naphtho[1,2-d]thiazol-2-amine]

Further lines, the compound ahead of its results:

Compound	Whole-cell KCa2.2 response elicited by 10 µM of activator normalized to 10 µM SKA-31 (described in words) [1]	Whole-cell KCa3.1 response elicited by 10 µM of activator normalized to 10 µM SKA-31 (described in words) [2]	Selectivity between KCa3.1 and KCa2.2 in the 10 µM screen [2]	melting point [°C]
2-Aminonaphtho[1,2-d]oxazole-5-sulfonic acid [SKA-128]	drastically reduced potency	drastically reduced potency		
5,6-Dinitronaphtho[1,2-d]thiazol-2-amine [SKA-218]			preserved the selectivity for KCa3.1	
Nc1nc2cc3ccccc3cc2o1 [SKA-134, Naphtho[2,3-d]oxazol-2-amine]				247 to 248
c1ccc2c(c1)ccc1sc(NC3CCCCC3)nc12 [SKA-165, N-Cyclohexylnaphtho[1,2-d]thiazol-2-amine]	completely eliminated activity	completely eliminated activity		
Cc1nc2c(ccc3cccc(N)c32)s1 [SKA-178, 2-Methylnaphtho[1,2-d]thiazol-9-amine]			preserved the selectivity for KCa3.1	87 to 88
Cc1ccc(-c2csc(N)n2)c2ccccc12 [SKA-190, 4-(4-Methylnaphthalen-1-yl)thiazol-2-amine]	somewhat increased KCa channel activating potency	somewhat increased KCa channel activating potency		
Cc1nc2c(ccc3cccc([N+](=O)[O-])c32)s1 [SKA-216, 2-Methyl-9-nitronaphtho[1,2-d]thiazole]			preserved the selectivity for KCa3.1	151 to 152
Nc1nc(-c2ccc3ccccc3c2)c(Br)s1 [SKA-220, 5-Bromo-4-(naphthalen-2-yl)thiazol-2-amine]	somewhat increased KCa channel activating potency	somewhat increased KCa channel activating potency		
Nc1nc(-c2ccc(-c3ccccc3)cc2)cs1 [SKA-232, 4-Biphenyl-4-yl-thiazol-2-ylamine]	completely devoid of activity	completely devoid of activity		
Nc1ncc(-c2ccc(-c3ccc(-c4cnc(N)s4)cc3)cc2)s1 [SKA-255, Bis-4,4’-(2-amino-4-thiazolyl)biphenyl]	completely devoid of activity	completely devoid of activity		
c1ccc(-c2csc(Nc3ccccn3)n2)cc1 [SKA-265, 4-Phenyl-N-(pyridin-2-yl)thiazol-2-amine]	completely devoid of activity	completely devoid of activity		
Nc1nc2c(cc(-c3ccccc3)c3ccccc32)s1 [SKA-326, 5-Phenylnaphtho[1,2-d]thiazol-2-amine]				177 to 178
Nc1nc2c(cc(-n3ccnc3)c3ccccc32)s1 [SKA-334, 5-(1H-Imidazol-1-yl)naphtho[1,2-d]thiazol-2-amine]				272 to 275
Nc1nc2c(cc(-n3ccc(C(F)(F)F)n3)c3ccccc32)s1 [SKA-341, 5-(3-(Trifluoromethyl)-1H-pyrazol-1-yl)naphtho[1,2-d]thiazol-2-amine]				206 to 207
